Source: US20160021921A1, “PRETERM INFANT NUTRITIONAL COMPOSITIONS CONTAINING BETA-HYDROXY-BETA-METHYLBUTYRIC ACID” (ABBOTT LABORATORIES, priority 2013, published 2016)
Entries after “also recorded” stand apart in the source; their conditions may differ.

What was measured:
Assay type in all cases: in vivo, neonatal pigs
LC3-II/LC3-I = assay: Ratio of LC3-II/LC3-I in muscles (autophagy/lysosomal protein degradation); conditions: one hour
Procedure: (§1) Overnight fasted neonatal pigs (5-7 days old) were infused with HMB at 0, 20, 100, or 400 μmol·kg^−1·hr^−1 HMB. Blood plasma concentrations of the following circulating substrates were measured.
(§2) At the end of the infusion, the piglets were sacrificed and the fractional protein synthesis rates were measured by measuring ^3H incorporation into protein fractions after a flooding dose of L[4-^3H]phenylalanine using the method set forth in Garlick, P. J., “A rapid and convenient technique for measuring the rate of protein synthesis in tissues by injection of [3H]Phenylalanine,” Biochem J (1980), Vol. 192, 719-723. Activation of translation initiation was measured in the stomach, duodenum, jejunum, colon, pancreas, kidney, brain and skin. The abundance of intracellular proteins involved in signaling of protein synthesis and in processes related to protein degradation was measured in tissue homogenates by immunoblotting using commercially available antibodies.

[1] = system: protein synthesis in skeletal muscles (longissimus dorsi, gastrocnemius, soleus, diaphragm); assay: Fractional protein synthesis rate in skeletal muscles, L[4-3H]phenylalanine flooding dose
Procedure: as §1, §2

eEF2 = assay: Phosphorylation of eEF2 in muscles, immunoblotting; conditions: one hour
Procedure: as §1, §2

e1F4E•e1F4G complex = assay: Formation of the active e1F4E•e1F4G complex in muscles (FIG. 11); conditions: one hour
Procedure: as §1, §2

amino acid transporters = assay: Level of amino acid transporters in piglet tissues; conditions: HMB-infused piglets
Procedure: as §2

4EBP1 = assay: Phosphorylation of 4EBP1 in muscles, immunoblotting; conditions: one hour
Procedure: as §1, §2

[2] = system: protein synthesis in the lung and spleen; assay: Fractional protein synthesis rate in lung and spleen; conditions: 20 μmol·kg^−1·hr^−1 HMB for one hour
Procedure: as §1, §2

S6K1 = assay: Phosphorylation of S6K1 in muscles, immunoblotting; conditions: one hour
Procedure: as §1, §2

elF2α = assay: Phosphorylation of elF2α in muscles, immunoblotting; conditions: one hour
Procedure: as §1, §2

MURF1 = assay: Expression of MURF1 in muscles, immunoblotting; conditions: one hour
Procedure: as §1, §2

Atrogin-1 = assay: Expression of Atrogin-1 in muscles, immunoblotting; conditions: one hour
Procedure: as §1, §2

[3] = 20 μmol·kg^−1·hr^−1 HMB, diaphragm
[4] = 20 μmol·kg^−1·hr^−1 HMB, longissimus dorsi, gastrocnemius, soleus
[5] = 100 μmol·kg^−1·hr^−1 HMB, diaphragm
[6] = 100 μmol·kg^−1·hr^−1 HMB, longissimus dorsi, gastrocnemius, soleus

## CC(C)(O)CC(=O)O [HMB, beta-hydroxy-beta-methylbutyric acid]
LC3-II/LC3-I; 20 μmol·kg^−1·hr^−1 HMB
  ratio of LC3-II/LC3-I: did not affect
LC3-II/LC3-I; 100 μmol·kg^−1·hr^−1 HMB
  ratio of LC3-II/LC3-I: did not affect
[1]; 20 μmol·kg^−1·hr^−1 HMB, longissimus dorsi, gastrocnemius, soleus, diaphragm, P<0.05
  fractional rate of protein synthesis: increased; also recorded: greatest impact
[1]; 100 μmol·kg^−1·hr^−1 HMB, gastrocnemius, soleus, diaphragm
  fractional rate of protein synthesis: not significantly
[1]; 100 μmol·kg^−1·hr^−1 HMB, longissimus dorsi muscle, P<0.05
  fractional rate of protein synthesis: increased
[1]; 400 μmol·kg^−1·hr^−1 HMB, skeletal muscles
  fractional rate of protein synthesis: no significant effect; also recorded: least impact
[1]; HMB 20, 100 or 400 vs leucine 400 μmol·kg^−1·hr^−1, longissimus dorsi, gastrocnemius, soleus, diaphragm, duodenum, brain
  effectiveness in increasing protein synthesis compared with leucine: equal to or more effective; also recorded: as effective as leucine
eEF2; 20 μmol·kg^−1·hr^−1 HMB
  phosphorylation of eEF2: did not affect
eEF2; 100 μmol·kg^−1·hr^−1 HMB
  phosphorylation of eEF2: did not affect
e1F4E•e1F4G complex; [3]
  formation of active eIF4E•eIF4G complex: increased
e1F4E•e1F4G complex; [4]
  formation of active eIF4E•eIF4G complex: increased
e1F4E•e1F4G complex; [5]
  formation of active eIF4E•eIF4G complex: not
e1F4E•e1F4G complex; [6]
  formation of active eIF4E•eIF4G complex: increased
Amino acid transporters
  level of amino acid transporters: did not affect
4EBP1; [3]
  phosphorylation of 4EBP1: increased
4EBP1; [4]
  phosphorylation of 4EBP1: increased
4EBP1; [5]
  phosphorylation of 4EBP1: not
4EBP1; [6]
  phosphorylation of 4EBP1: increased
[2]
  fractional rate of protein synthesis in lung and spleen: increased
S6K1; [3]
  phosphorylation of S6K1: increased
S6K1; [4]
  phosphorylation of S6K1: increased
S6K1; [5]
  phosphorylation of S6K1: not
S6K1; [6]
  phosphorylation of S6K1: increased
elF2α; 20 μmol·kg^−1·hr^−1 HMB
  phosphorylation of elF2a: did not affect
elF2α; 100 μmol·kg^−1·hr^−1 HMB
  phosphorylation of elF2a: did not affect
MURF1; 20 μmol·kg^−1·hr^−1 HMB
  expression of MURF1: did not affect
MURF1; 100 μmol·kg^−1·hr^−1 HMB
  expression of MURF1: did not affect
Atrogin-1; 20 μmol·kg^−1·hr^−1 HMB
  expression of Atrogin-1: did not affect
Atrogin-1; 100 μmol·kg^−1·hr^−1 HMB
  expression of Atrogin-1: did not affect
